According to ChEMBL document CHEMBL5257110, “Recent developments of imidazo[1,2-a]pyridine analogues as antituberculosis agents” (RSC Med Chem, 2023):
Values after ≈ are worked out from the molar mass of the structure shown.

Legend:
[1] = system: Mycolicibacterium smegmatis; assay: Antimycobacterial activity against Mycobacterium smegmatis; format: functional
[2] = Cytotoxicity against African green monkey Vero cells assessed as reduction in cell viability; format: toxicity, cell-based, Chlorocebus sabaeus; details: for IC50: African green monkey
[3] = system: Mycobacterium tuberculosis; assay: Antimycobacterial activity against drug-sensitive Mycobacterium tuberculosis H37Rv; format: functional
[4] = system: Mycobacterium tuberculosis; assay: Antimycobacterial activity against drug-sensitive Mycobacterium tuberculosis V4207; format: functional
[5] = system: Mycobacterium tuberculosis; assay: Antimycobacterial activity against MDR-Mycobacterium tuberculosis KZN494; format: functional
[6] = system: Mycobacterium tuberculosis; assay: Antimycobacterial activity against MDR-Mycobacterium tuberculosis V2475; format: functional
[7] = system: Mycobacterium tuberculosis; assay: Antimycobacterial activity against XDR-Mycobacterium tuberculosis R506; format: functional
[8] = system: Mycobacterium tuberculosis; assay: Antimycobacterial activity against XDR-Mycobacterium tuberculosis TF274; format: functional
[9] = Selectivity index, ratio of IC50 for cytotoxicity against African green monkey Vero cells to MIC90 for antimycobacterial activity against drug-sensitive Mycobacterium tuberculosis H37Rv; format: toxicity, cell-based; details: read-out: Selectivity Index
[10] = Selectivity index, ratio of IC50 for cytotoxicity against African green monkey Vero cells to MIC90 for antimycobacterial activity against drug-sensitive Mycobacterium tuberculosis V4207; format: toxicity, cell-based; details: read-out: Selectivity Index
[11] = Selectivity index, ratio of IC50 for cytotoxicity against African green monkey Vero cells to MIC90 for antimycobacterial activity against MDR-Mycobacterium tuberculosis KZN494; format: toxicity, cell-based; details: read-out: Selectivity Index
[12] = Selectivity index, ratio of IC50 for cytotoxicity against African green monkey Vero cells to MIC90 for antimycobacterial activity against MDR-Mycobacterium tuberculosis V2475; format: toxicity, cell-based; details: read-out: Selectivity Index
[13] = Selectivity index, ratio of IC50 for cytotoxicity against African green monkey Vero cells to MIC90 for antimycobacterial activity against XDR-Mycobacterium tuberculosis R506; format: toxicity, cell-based; details: read-out: Selectivity Index
[14] = Selectivity index, ratio of IC50 for cytotoxicity against African green monkey Vero cells to MIC90 for antimycobacterial activity against XDR-Mycobacterium tuberculosis TF274; format: toxicity, cell-based; details: read-out: Selectivity Index
[15] = system: Mycobacterium tuberculosis; assay: Antimycobacterial activity against replicating Mycobacterium tuberculosis H37Rv; format: functional
[16] = system: Mycobacterium tuberculosis; assay: Antimycobacterial activity against Mycobacterium tuberculosis H37Rv; format: functional
[17] = system: Mycobacterium tuberculosis; assay: Antimycobacterial activity against Mycobacterium tuberculosis 7H12; format: functional
[18] = Cytotoxicity against CHO-K1 cells; format: toxicity, cell-based, Cricetulus griseus; details: Chinese hamster
[19] = system: Mycobacterium tuberculosis; assay: Antibacterial activity against non-replicating Mycobacterium tuberculosis H37Rv-LUX assessed as inhibition of bacterial growth incubated for 9 days under anaerobic conditions followed by 28 hrs under aerobic conditions by LORA assay; format: functional; details: time 244 hrs
[20] = Aqueous solubility of the compound; format: physicochemical; details: aqueous medium
[21] = Microsomal stability in human liver microsomes assessed as half life; format: ADME, Microsome
[22] = system: Mycobacterium tuberculosis; assay: Antimycobacterial activity against Mycobacterium tuberculosis Erdman infected in BALB/c mouse model assessed as log reduction of bacterial load in lung at 200 mg/kg, po administered 5 days a week for 30 days untill day 58; format: functional; details: time 58 day

Compound `Cc1nc(-c2ccccc2)sc1-c1cn2ccc(Br)cc2n1` has an MIC90 [1] of 67.5 µM (≈ 25 µg/mL).

Work on `Cc1nc2ccc(Cl)cn2c1C(=O)NCCCC1CCCCC1` yielded an IC50 [2] of no less than 191 µM, an MIC90 [3] of 0.19 µM (≈ 0.0634 µg/mL) and an MIC90 [4] of 0.37 µM (≈ 0.124 µg/mL). It also gave an MIC90 [5] of 0.09 µM (≈ 0.03 µg/mL), an MIC90 [6] of 0.37 µM (≈ 0.124 µg/mL) and an MIC90 [7] of 0.75 µM (≈ 0.25 µg/mL). It also gave an MIC90 [8] of 1.5 µM (≈ 0.501 µg/mL), a selectivity ratio [9] of no less than 1024 and a selectivity ratio [10] of no less than 1024. For the same compound, the selectivity ratio [11] was no less than 1024, the selectivity ratio [12] was no less than 1024 and the selectivity ratio [13] was no less than 1024. It also gave a selectivity ratio [14] of no less than 1024.

For `CCc1ccn2c(C(=O)NCc3ccc(C)cc3)c(C)nc2c1`, the MIC90 [15] was 0.004 µM (≈ 0.00123 µg/mL).

`COc1ccn2nc(C)c(C(=O)NCc3ccc(N4CCC(c5ccc(OC(F)(F)F)cc5)CC4)cc3)c2c1` gave an MIC90 [16] of 0.011 µM (≈ 0.00592 µg/mL).

In the case of `Cc1ccc2nc(C)c(C(=O)NCCCC3CCCCC3)n2c1`, the IC50 [2] is reported as 120 µM, the MIC90 [3] is reported as 0.1 µM (≈ 0.0313 µg/mL) and the MIC90 [4] is reported as 0.1 µM (≈ 0.0313 µg/mL). The MIC90 [5] was 0.05 µM (≈ 0.0157 µg/mL), the MIC90 [6] was 0.2 µM (≈ 0.0627 µg/mL) and the MIC90 [7] was 0.1 µM (≈ 0.0313 µg/mL). For the same compound, the MIC90 [8] was 0.2 µM (≈ 0.0627 µg/mL), the selectivity ratio [9] was no less than 1024 and the selectivity ratio [10] was no less than 1024. It also gave a selectivity ratio [11] of no less than 1024, a selectivity ratio [12] of no less than 1024 and a selectivity ratio [13] of no less than 1024. For the same compound, the selectivity ratio [14] was no less than 1024.

Work on `Cc1ccn2c(C(=O)NCc3ccccc3)c(C)nc2c1` yielded an MIC99 [16] of 0.2 µM (≈ 0.0559 µg/mL).

For `CC(C)(C)OC(=O)N1CCN(c2nc(=O)c3cc(C(F)(F)F)cc([N+](=O)[O-])c3s2)CC1`, the MIC90 [17] was 0.28 µM (≈ 0.129 µg/mL).

Work on `Cc1nc(-c2ccc(F)cc2)sc1-c1cn2ccc(Br)cc2n1` yielded an MIC90 [1] of 53.6 µM (≈ 20.8 µg/mL).

In the case of `Cc1ccn2c(C(=O)N3CCN(c4nc(=O)c5cc(C(F)(F)F)cc([N+](=O)[O-])c5s4)CC3)c(C)nc2c1`, the MIC90 [17] is reported as 2.1 µM (≈ 1.12 µg/mL).

With `Cc1ccn2nc(C)c(C(=O)NCc3ccc(C(F)(F)F)cc3)c2c1` the MIC90 [16] was 0.069 µM (≈ 0.024 µg/mL).

For `Cc1ccc2nc(C)c(C(=O)NCc3cccs3)n2c1`, the MIC90 [3] was 0.22 µM (≈ 0.0628 µg/mL).

For `N#Cc1cccc(Nc2cc(C(F)(F)F)ccc2-c2cnc3ccccn23)c1`, the IC50 [18] was 217 µM and the MIC90 [16] was 6.08 µM (≈ 2.3 µg/mL).

In the case of `Cc1cn2c(C(=O)NCc3ccc(N4CCN(c5ccc(OC(F)(F)F)cc5)CC4)c(F)c3)c(C)nc2s1`, the MIC90 [15] is reported as 0.008 µM (≈ 0.00438 µg/mL), the MIC90 [19] is reported as 1.1 µM (≈ 0.602 µg/mL) and the CC50 ([2]; chlorocebus sabaeus) is reported as greater than 100 µM. For the same compound, the solubility [20] was 50 µM (≈ 27.4 µg/mL), the half-life [21] was 28 min and the Activity [22] was 0.3 log10CFU.

`Cc1ccc(-c2nc3ccc(C)cn3c2CC(=O)N(C)C)cc1` [ZOLPIDEM] showed an MIC90 [15] of 10 µM (≈ 3.07 µg/mL).

Work on `Cc1ccn2c(C(=O)NCc3ccc(C(=O)N4CCN(c5nc(=O)c6cc(C(F)(F)F)cc([N+](=O)[O-])c6s5)CC4)cc3)c(C)nc2c1` yielded an MIC90 [17] greater than 10 µM.

For `Cc1nc(-c2ccc(F)cc2)sc1-c1cn2ccccc2n1`, the MIC90 [1] was 90.2 µM (≈ 27.9 µg/mL).

Compound `Cc1ccc(CNC(=O)Cc2c(C)nc3ccc(C)cn23)cc1` has an MIC90 [16] of 1.7 µM (≈ 0.523 µg/mL).

With `Cc1ccn2c(C(=O)NCc3ccc(C(=O)OCc4ccccc4)cc3)c(C)nc2c1` the MIC90 [17] was 0.21 µM (≈ 0.0868 µg/mL).
